# Assay results published in patent US4822800A (Ortho Pharmaceutical Corporation, priority 1986, dated 1989).
# Entries after “also recorded” stand apart in the source; their conditions may differ. Where two headings read alike, the source gives them in different places.
# What was measured:
# adult mongrel dogs [1] = assay: acute in vivo cardiotonic activity in anesthetized dogs; parameters: species or system dog (adult mongrel); conditions: for change in vivo at 0.15 mg/kg / change in vivo at 0.375 mg/kg / change in vivo at 0.925 mg/kg / change in vivo at 1.875 mg/kg / change in vivo at 0.875 mg/kg: Canis lupus familiaris, cardiotonic, relative to controls; for change in vivo at 0.15 mg/kg: dose 0.150 mg/kg intravenous; for cardiotonic activity (in words): summary of Table 4; for change in vivo at 0.375 mg/kg: dose 0.375 mg/kg intravenous; for change in vivo at 0.925 mg/kg: dose 0.925 mg/kg intravenous; for change in vivo at 1.875 mg/kg: dose 1.875 mg/kg intravenous; for change in vivo at 0.875 mg/kg: dose 0.875 mg/kg intravenous
# Experimental: The acute in vivo cardiotonic activity of compounds prepared according to the present invention was determined according to a modification of the procedure described by Alousi et al., Circ. Res., 45, 666 (1979).
# In particular, adult mongrel dogs were anesthetized with sodium pentobarbital and were artificially respired. Arterial pressure was monitored via a femoral artery, and the pulse pressure was used to trigger a cardiotachometer for heart rate. Left ventricular pressure was determined with a Millar catheter, and dP/dt (the change in ventricular pressure with time) was derived. Cardiac output was determined by measuring ascending aortic blood flow with an electromagnetic flow probe, and myocardial contractile force was measured with a Walton Brodie strain gauge sutured to the right ventricle. Lead II EKG was also recorded.
# A standard dose (10 μg/kg/min) of dopamine was administered to assess myocardial responsiveness.
# Compounds of the invention were administered by intravenous infusion or bolus […] administration, and the effects on cardiovascular parameters were determined.
# Dose related effects of the test compound on blood pressure (BP), heart rate (HR), maximum change in left ventricular pressure with time (dP/dt max),% change in cardiac force (CF) and the increase in mean arterial blood pressure relative to controls (MABP) were compared to pretreatment control values, expressed as a% change and rated for activity.
# adult mongrel dogs [2] = assay: renal vasodilating activity in anesthetized dogs; type: in vivo, dog (adult mongrel); conditions: for change in vivo at 0.2 mg/kg / change in vivo at 1.2 mg/kg / change in vivo at 0.34 mg/kg / change in vivo at 0.14 mg/kg: Canis lupus familiaris, renal vasodilator, relative to controls; for change in vivo at 0.2 mg/kg: dose 0.2 mg/kg intravenous; for renal vasodilating activity (in words): summary of Table 4; for change in vivo at 1.2 mg/kg: dose 1.2 mg/kg intravenous; for change in vivo at 0.34 mg/kg: dose 0.34 mg/kg intravenous; for change in vivo at 0.14 mg/kg: dose 0.14 mg/kg intravenous
# Experimental: Goldberg et al, J. Pharmacol. Exp. Ther., 163, 188 (1968), performed an investigation of the structural requirements for dopamine-like renal vasodilation of phenethylamines and apomorphine. The following procedure is a variation of the assay described in that report.
# Adult mongrel dogs were anesthetized and surgically prepared for electromagnetic measurement of renal artery blood flow. A carotid artery was cannulated for measuring arterial blood pressure, and drugs were administered intravenously. Heart rate was monitored with a cardiotachometer. Renal vascular resistance was calculated as the ratio of mean arterial blood pressure/renal artery blood flow. Dopamine was infused intravenously at 3 μg/kg/min for ten minutes (at an infusion rate of about 1 ml/min) to determine responsiveness of each dog to renal dopamine receptor stimulation. Cumulative dose-response data were obtained by infusing a compound of this invention at progressively increasing (usually three-fold) infusion rates, each dose being infused for five minutes. The maximum % increase from pre-drug control in renal artery blood flow (or a decrease in renal vascular resistance) was determined for each infusion dose.
# RBF values are percent change in renal blood flow. RVR values are percent change in renal vascular resistance. MABP and HR are percent changes in mean arterial blood pressure and heart rate, respectively, relative to controls.
# [3] = target: T1, Phosphodiesterase fraction III (Canis lupus familiaris, UniProt A0A8I3NYE0); assay: inhibition of phosphodiesterase fraction III activity; type: biochemical, canine (heart); conditions: for IC50: cyclic AMP 0.10-1.0 uM, pH 7.4, canine heart enzyme; for phosphodiesterase fraction III inhibition (in words): summary of Table 5
# T1 construct: isolated as an isozyme from the crude canine heart homogenate; from tissue; host or cells: canine heart (crude homogenate, ion exchange chromatography, third and last PDE peak)
# T1 sequence (A0A8I3NYE0 1-1135): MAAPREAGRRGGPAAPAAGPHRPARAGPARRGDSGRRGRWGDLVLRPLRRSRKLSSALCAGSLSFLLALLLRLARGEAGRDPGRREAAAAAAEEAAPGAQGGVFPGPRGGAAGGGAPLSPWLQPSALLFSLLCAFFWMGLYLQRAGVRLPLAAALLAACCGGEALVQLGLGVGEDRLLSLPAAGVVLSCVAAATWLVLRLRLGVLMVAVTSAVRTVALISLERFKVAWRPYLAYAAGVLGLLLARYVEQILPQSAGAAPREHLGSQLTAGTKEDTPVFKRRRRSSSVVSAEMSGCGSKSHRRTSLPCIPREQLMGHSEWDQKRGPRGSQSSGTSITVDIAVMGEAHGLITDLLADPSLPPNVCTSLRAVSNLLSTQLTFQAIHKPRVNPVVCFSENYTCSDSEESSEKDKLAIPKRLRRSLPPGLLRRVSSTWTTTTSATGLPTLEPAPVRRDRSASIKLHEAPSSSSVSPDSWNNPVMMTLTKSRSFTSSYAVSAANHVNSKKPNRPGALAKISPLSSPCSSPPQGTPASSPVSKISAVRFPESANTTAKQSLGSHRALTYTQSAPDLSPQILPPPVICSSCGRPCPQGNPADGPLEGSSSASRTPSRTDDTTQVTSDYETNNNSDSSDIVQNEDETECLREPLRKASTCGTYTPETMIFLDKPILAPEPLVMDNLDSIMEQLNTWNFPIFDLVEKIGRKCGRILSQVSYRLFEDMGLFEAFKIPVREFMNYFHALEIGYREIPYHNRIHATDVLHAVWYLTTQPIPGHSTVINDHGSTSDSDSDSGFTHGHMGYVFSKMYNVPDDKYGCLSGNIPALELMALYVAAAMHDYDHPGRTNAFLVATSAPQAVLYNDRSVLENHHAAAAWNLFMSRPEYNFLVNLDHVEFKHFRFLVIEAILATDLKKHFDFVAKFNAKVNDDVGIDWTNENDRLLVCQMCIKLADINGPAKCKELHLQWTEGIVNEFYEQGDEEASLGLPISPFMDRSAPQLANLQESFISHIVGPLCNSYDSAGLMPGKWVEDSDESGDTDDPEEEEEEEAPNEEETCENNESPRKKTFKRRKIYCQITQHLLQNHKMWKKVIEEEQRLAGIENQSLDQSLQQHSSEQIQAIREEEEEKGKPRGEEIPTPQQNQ
# [4] = read-out: MABP (mean arterial blood pressure)
# [5] = read-out: dP/dt (maximum change left ventricular pressure with time)
# [6] = read-out: RBF (renal blood flow)
# [7] = read-out: RVR (renal vascular resistance)
structure (smiles),measurement,setting,value
COc1cc2c(C)nc(O)c(C(C)C)c2cc1OC [AF],change in vivo at 0.15 mg/kg,adult mongrel dogs [1]; read-out: CF (cardiac force),92%
same,change in vivo at 0.15 mg/kg,adult mongrel dogs [1]; read-out: HR (heart rate),8%
same,change in vivo at 0.15 mg/kg,adult mongrel dogs [1]; [4],-15%
same,change in vivo at 0.15 mg/kg,adult mongrel dogs [1]; [5],60%
same,cardiotonic activity (in words),adult mongrel dogs [1],cardiotonic properties
same,change in vivo at 0.2 mg/kg,adult mongrel dogs [2]; read-out: HR (heart rate),28%
same,change in vivo at 0.2 mg/kg,adult mongrel dogs [2]; [4],-16%
same,change in vivo at 0.2 mg/kg,adult mongrel dogs [2]; [6],11%
same,change in vivo at 0.2 mg/kg,adult mongrel dogs [2]; [7],-24%
same,renal vasodilating activity (in words),adult mongrel dogs [2],renal vasodilating properties
same,IC50,[3],12.3 µM
same,phosphodiesterase fraction III inhibition (in words),[3],inhibit phosphodiesterase fraction III activity; also recorded: phosphodiesterase fraction III inhibiting properties
COc1cc(OC)c2c(C)nc(O)cc2c1 [AH],change in vivo at 0.375 mg/kg,adult mongrel dogs [1]; read-out: CF (cardiac force),50%
same,change in vivo at 0.375 mg/kg,adult mongrel dogs [1]; read-out: HR (heart rate),6%
same,change in vivo at 0.375 mg/kg,adult mongrel dogs [1]; [4],-3%
same,change in vivo at 0.375 mg/kg,adult mongrel dogs [1]; [5],46%
same,change in vivo at 1.2 mg/kg,adult mongrel dogs [2]; read-out: HR (heart rate),25%
same,change in vivo at 1.2 mg/kg,adult mongrel dogs [2]; [4],-6%
same,change in vivo at 1.2 mg/kg,adult mongrel dogs [2]; [6],13%
same,change in vivo at 1.2 mg/kg,adult mongrel dogs [2]; [7],-17%
same,IC50,[3],80 µM
COc1ccc2c(C)nc(O)cc2c1 [AI],change in vivo at 0.925 mg/kg,adult mongrel dogs [1]; read-out: CF (cardiac force),65%
same,change in vivo at 0.925 mg/kg,adult mongrel dogs [1]; read-out: HR (heart rate),8%
same,change in vivo at 0.925 mg/kg,adult mongrel dogs [1]; [4],0%
same,change in vivo at 0.925 mg/kg,adult mongrel dogs [1]; [5],56%
same,change in vivo at 1.2 mg/kg,adult mongrel dogs [2]; read-out: HR (heart rate),4%
same,change in vivo at 1.2 mg/kg,adult mongrel dogs [2]; [4],-1%
same,change in vivo at 1.2 mg/kg,adult mongrel dogs [2]; [6],7%
same,change in vivo at 1.2 mg/kg,adult mongrel dogs [2]; [7],-7%
same,IC50,[3],160 µM
CCCCOc1cc2c(C)nc(O)cc2cc1OC [AL],change in vivo at 0.375 mg/kg,adult mongrel dogs [1]; read-out: CF (cardiac force),138%
same,change in vivo at 0.375 mg/kg,adult mongrel dogs [1]; read-out: HR (heart rate),22%
same,change in vivo at 0.375 mg/kg,adult mongrel dogs [1]; [4],-10%
same,change in vivo at 0.375 mg/kg,adult mongrel dogs [1]; [5],46%
same,cardiotonic activity (in words),adult mongrel dogs [1],cardiotonic properties
same,change in vivo at 1.2 mg/kg,adult mongrel dogs [2]; read-out: HR (heart rate),9%
same,change in vivo at 1.2 mg/kg,adult mongrel dogs [2]; [4],-6%
same,change in vivo at 1.2 mg/kg,adult mongrel dogs [2]; [6],13%
same,change in vivo at 1.2 mg/kg,adult mongrel dogs [2]; [7],-17%
same,renal vasodilating activity (in words),adult mongrel dogs [2],renal vasodilating properties
same,IC50,[3],37 µM
same,phosphodiesterase fraction III inhibition (in words),[3],inhibit phosphodiesterase fraction III activity; also recorded: phosphodiesterase fraction III inhibiting properties
COc1cc2c(C)nc(O)c(C3CCCC3)c2cc1OC [AN],change in vivo at 1.875 mg/kg,adult mongrel dogs [1]; read-out: CF (cardiac force),46%
same,change in vivo at 1.875 mg/kg,adult mongrel dogs [1]; read-out: HR (heart rate),5%
same,change in vivo at 1.875 mg/kg,adult mongrel dogs [1]; [4],3%
same,change in vivo at 1.875 mg/kg,adult mongrel dogs [1]; [5],22%
same,change in vivo at 0.34 mg/kg,adult mongrel dogs [2]; read-out: HR (heart rate),1%
same,change in vivo at 0.34 mg/kg,adult mongrel dogs [2]; [4],-1%
same,change in vivo at 0.34 mg/kg,adult mongrel dogs [2]; [6],10%
same,change in vivo at 0.34 mg/kg,adult mongrel dogs [2]; [7],-10%
same,IC50,[3],128 µM
"Br.COc1cc2c(C)nc(O)c(Br)c2cc1OC.O [Compound AC, 4-Bromo-3-hydroxy-6,7-dimethoxy-1-methylisoquinoline Hydrobromide Monohydrate]",change in vivo at 0.875 mg/kg,adult mongrel dogs [1]; read-out: CF (cardiac force),128%
same,change in vivo at 0.875 mg/kg,adult mongrel dogs [1]; read-out: HR (heart rate),26%
same,change in vivo at 0.875 mg/kg,adult mongrel dogs [1]; [4],-40%
same,change in vivo at 0.875 mg/kg,adult mongrel dogs [1]; [5],25%
same,change in vivo at 0.2 mg/kg,adult mongrel dogs [2]; [6],8%
same,change in vivo at 0.2 mg/kg,adult mongrel dogs [2]; [7],-27%
same,IC50,[3],10 µM
same,phosphodiesterase fraction III inhibition (in words),[3],inhibit phosphodiesterase fraction III activity
"COc1cc2c(C)nc(O)c(Cl)c2cc1OC [Compound AE, 4-Chloro-3-hydroxy-6,7-dimethoxy-1-methylisoquinoline]",change in vivo at 0.875 mg/kg,adult mongrel dogs [1]; read-out: CF (cardiac force),89%
same,change in vivo at 0.875 mg/kg,adult mongrel dogs [1]; read-out: HR (heart rate),29%
same,change in vivo at 0.875 mg/kg,adult mongrel dogs [1]; [4],1%
same,change in vivo at 0.875 mg/kg,adult mongrel dogs [1]; [5],88%
same,change in vivo at 0.14 mg/kg,adult mongrel dogs [2]; [6],12%
same,change in vivo at 0.14 mg/kg,adult mongrel dogs [2]; [7],-25%
same,IC50,[3],62 µM
